Test results: the supplement of paper PMC13380429
± gives the standard deviation of the averaged measurements.

Columns and labels:
Conditions in all cases: 72 h
Caco-2 [1] = experiment: cell viability relative to DMSO; higher = less toxic
HepG2 [2] = experiment: as above
Caco-2 [3] = experiment: drug sensitivity score (DSS) for viability; higher = more toxic; extreme values may be limits of the assay
HepG2 [4] = experiment: as above
Caco-2 [5] = experiment: relative viability EC50 (midpoint between 100% and the lowest measured viability); higher = less toxic
HepG2 [6] = experiment: as above
U2OS [7] = experiment: cell viability relative to DMSO; higher = less toxic
Calu-3 [8] = experiment: as above
Vero E6 [9] = experiment: as above
U2OS [10] = experiment: drug sensitivity score (DSS) for viability; higher = more toxic; extreme values may be limits of the assay
Calu-3 [11] = experiment: as above
Vero E6 [12] = experiment: as above
U2OS [13] = experiment: relative viability EC50 (midpoint between 100% and the lowest measured viability); higher = less toxic
Calu-3 [14] = experiment: as above

| Structure (SMILES) | cell viability (Caco-2 [1]; 1 nM) [%] | cell viability (Caco-2 [1]; 10 nM) [%] | cell viability (Caco-2 [1]; 100 nM) [%] | cell viability (Caco-2 [1]; 1000 nM) [%] | cell viability (Caco-2 [1]; 10000 nM) [%] | cell viability (HepG2 [2]; 1 nM) [%] | cell viability (HepG2 [2]; 10 nM) [%] | cell viability (HepG2 [2]; 100 nM) [%] | cell viability (HepG2 [2]; 1000 nM) [%] | cell viability (HepG2 [2]; 10000 nM) [%] | drug sensitivity score (Caco-2 [3]) | drug sensitivity score (HepG2 [4]) | relative viability EC50 (Caco-2 [5]) [µM] | relative viability EC50 (HepG2 [6]) [µM] | cell viability (U2OS [7]; 1 nM) [%] | cell viability (U2OS [7]; 10 nM) [%] | cell viability (U2OS [7]; 100 nM) [%] | cell viability (U2OS [7]; 1000 nM) [%] | cell viability (U2OS [7]; 10000 nM) [%] | cell viability (Calu-3 [8]; 1 nM) [%] | cell viability (Calu-3 [8]; 10 nM) [%] | cell viability (Calu-3 [8]; 100 nM) [%] | cell viability (Calu-3 [8]; 1000 nM) [%] | cell viability (Calu-3 [8]; 10000 nM) [%] | cell viability (Vero E6 [9]; 1 nM) [%] | cell viability (Vero E6 [9]; 10 nM) [%] | cell viability (Vero E6 [9]; 100 nM) [%] | cell viability (Vero E6 [9]; 1000 nM) [%] | cell viability (Vero E6 [9]; 10000 nM) [%] | drug sensitivity score (U2OS [10]) | drug sensitivity score (Calu-3 [11]) | drug sensitivity score (Vero E6 [12]) | relative viability EC50 (U2OS [13]) [µM] | relative viability EC50 (Calu-3 [14]) [µM] |
| --- | --- | --- | --- | --- | --- | --- | --- | --- | --- | --- | --- | --- | --- | --- | --- | --- | --- | --- | --- | --- | --- | --- | --- | --- | --- | --- | --- | --- | --- | --- | --- | --- | --- | --- |
| CC(=O)OC[C@H]1O[C@@H](n2ccc(=O)[nH]c2=O)[C@H](OC(C)=O)[C@@H]1OC(C)=O [uridine-triacetate] | 101 | 110 | 114 | 97.2 | 115 | 106 | 113 | 106 | 109 | 95.4 | 0 | 0 | > 10 | > 10 |  |  |  |  |  |  |  |  |  |  |  |  |  |  |  |  |  |  |  |  |
| CN(C)CCC(c1ccccc1)c1ccccn1 (configuration not stated) [pheniramine] | 98.1 | 96.6 | 93.6 | 91.6 | 101 | 96.4 | 99.8 | 102 | 103 | 101 | 0 | 0 | > 10 | > 10 | 99.9 | 98.8 | 102 | 97.6 | 109 | 105 | 95.3 | 99 | 94.7 | 102 | 91.4 | 57.3 | 101 | 77.9 | 79.5 | 0 | 0 | 5.7 | > 10 | > 10 |
| C[C@@H](NC(=O)CCc1nc2ccccc2c(=O)[nH]1)c1ccccc1 [ME0328] | 97.8 ± 16 | 94 ± 1.2 | 98.8 ± 2 | 103 ± 4.3 | 93.7 ± 9.1 | 98.65 ± 0.78 | 98.8 ± 4.7 | 100 ± 4.5 | 104 ± 1.3 |  | 0 | 0 |  |  | 102 ± 1.1 | 98 ± 1.3 | 103 ± 1.6 | 95.8 ± 0.14 | 95.8 ± 6.4 | 100 ± 5.4 | 112 ± 15 | 92 ± 3.1 | 99.7 ± 8.7 | 98.3 ± 3.2 | 93.6 ± 7.1 |  | 93.8 ± 6 | 94.2 ± 6.1 | 94.05 ± 0.071 | 0 | 0 | 0 |  |  |
| Cc1c(N)nc([C@H](CC(N)=O)NC[C@H](N)C(N)=O)nc1C(=O)N[C@H](C(=O)N[C@H](C)[C@@H](O)[C@H](C)C(=O)N[C@H](C(=O)NCCc1nc(-c2nc(C(=O)NCCC[S+](C)C)cs2)cs1)[C@@H](C)O)[C@@H](OC1OC(CO)C(O)C(O)C1OC1OC(CO)C(O)C(OC(N)=O)C1O)c1cnc[nH]1 (some centres not stated) [bleomycin] | 98.9 | 93.8 | 92.3 | 89.5 | 76.8 | 93.4 | 93.7 | 95.8 | 66.2 | 50.8 | 1.7 | 6.8 | > 10 |  | 97 | 101 | 93.5 | 88.4 | 55.6 | 102 | 91.8 | 94.7 | 66.2 | 49.8 | 97.4 | 103 | 97.5 | 75.5 | 60 | 3.8 | 6.9 | 4.8 |  | 0.536 |
| Cc1cc2c(cc1CC(=O)c1sccc1S(=O)(=O)Nc1onc(C)c1Cl)OCO2 [sitaxentan] | 114 | 98 | 102 | 100 | 108 |  |  |  |  |  | 0 |  | > 10 |  | 99.6 | 99.6 | 98.9 | 101 | 101 |  |  |  |  |  |  |  |  |  |  | 0 |  |  | > 10 |  |
| COc1cc(N2CCC(O)CC2)ccc1Nc1cc(Nc2ccccc2S(=O)(=O)C(C)C)c2cc[nH]c2n1 [Mps1-IN-1] | 102 | 92.2 | 97.4 | 101 | 53.9 | 96.5 | 118 | 95.2 | 95.5 | 37.8 | 2.3 | 4.1 |  | 2.57 | 103 | 101 | 101 | 98.3 | 70.2 | 101 | 114 | 90.9 | 102 | 85.6 | 106 | 103 | 102 | 98.9 | 74 | 1.5 | 0.1 | 1.2 |  | > 10 |
| O=C(Nc1ccccc1)N1CCC(Cc2cnc3ccccc3c2)CC1 [PF-750] | 106 | 99.4 | 94.5 | 102 | 88.3 | 96.6 | 108 | 103 | 98.1 | 93 | 0 | 0 | > 10 | > 10 | 97.2 | 92 | 96.8 | 96.5 | 97.9 | 89.9 | 88.1 | 114 | 95.7 | 95.9 |  |  |  |  |  | 0 | 0 |  | > 10 | > 10 |
| COc1ccc(CCc2nc3cc(-c4c(C)noc4C)ccc3n2C[C@H](C)N2CCOCC2)cc1Cl [SGC-CBP30] | 93.5 | 97.2 | 106 | 87.9 | 76.8 | 90.4 | 105 | 93.6 | 94.9 | 70.4 | 2.2 | 2.1 | > 10 |  | 94.7 | 95.5 | 102 | 98.7 | 79.3 | 99.4 | 102 | 88.3 | 90.9 | 86.4 | 89.8 | 97.6 | 89.5 | 94.5 | 53.9 | 0.8 | 1.7 | 3.3 | > 10 | > 10 |
| O=C(NO)c1ccc(O)c(O)c1 [didox] | 101 | 96.9 | 100 | 86.7 | 104 | 102 | 102 | 93.3 | 118 | 93.2 | 0 | 0 | > 10 | > 10 |  |  |  |  |  | 111 | 110 | 96.6 | 103 | 107 |  |  |  |  |  |  | 0 |  |  | > 10 |
| CC(=O)Nc1ccc(CC(=O)O)cc1 [actarit] | 96 | 94 | 93.7 | 99.9 | 96 |  |  |  |  |  | 0 |  | > 10 |  | 98.1 | 101 | 94.8 | 103 | 96.4 | 105 | 104 | 117 | 107 | 97.8 |  |  |  |  |  | 0 | 0 |  | > 10 | > 10 |
| NCc1ccc(S(N)(=O)=O)cc1 [mafenide] | 106 | 98.5 | 97.7 | 103 | 98.1 | 94.1 | 102 | 99.9 | 101 | 95.7 | 0 | 0 | > 10 | > 10 |  |  |  |  |  | 100 | 103 | 98.1 | 94.5 | 96.1 |  |  |  |  |  |  | 0 |  |  | > 10 |
| COc1ccc(Nc2ccn(-c3ccccc3)n2)cc1 | 102 | 98.5 | 90 | 97.4 | 89.4 | 102 | 97.2 | 97.6 | 114 | 100 | 0 | 0 | > 10 | > 10 | 95 | 100 | 94.2 | 99.5 | 96.2 |  |  |  |  |  |  |  |  |  |  | 0 |  |  | > 10 |  |
| CCS(=O)(=O)c1ccc2oc(-c3ccc4ccccc4c3)nc2c1 [ezutromid] | 103 | 89 | 91.4 | 91.8 | 90.2 | 99.8 | 121 | 102 | 102 | 94.3 | 0.7 | 0 | > 10 | > 10 | 101 | 97.7 | 105 | 97.4 | 97.2 |  |  |  |  |  |  |  |  |  |  | 0 |  |  | > 10 |  |
| O=C(Cc1ccccc1)Nc1nc2ccc(Cl)cc2c2nc(-c3ccco3)nn12 [MRS-1220] | 93.7 | 100 | 99.4 | 94.1 | 101 | 96.5 | 93 | 93.5 | 95.6 | 105 | 0 | 0 | > 10 | > 10 | 98.8 | 101 | 97.2 | 104 | 96.9 | 104 | 98.2 | 95.3 | 94.1 | 93.5 |  |  |  |  |  | 0 | 0 |  | > 10 | > 10 |
| CCOC(=O)[C@H](Cc1ccc([N+](=O)[O-])cc1)NC(=O)c1ccccc1 | 104 | 97.9 | 102 | 96.7 | 90.7 | 99.4 | 93.2 | 107 | 101 | 95.2 | 0 | 0 | > 10 | > 10 | 101 | 98.3 | 98.5 | 101 | 102 | 92.9 | 103 | 96.8 | 102 | 106 |  |  |  |  |  | 0 | 0 |  | > 10 | > 10 |
| CC(=O)C1=C(O)[C@@H]2[C@H]3c4c[nH]c5cccc(c45)C[C@H]3C(C)(C)N2C1=O [cyclopiazonic-acid] | 99.9 | 106 | 107 | 106 | 81.9 | 110 | 105 | 103 | 97.2 | 64.3 | 0.3 | 2.1 | > 10 |  | 102 | 100 | 100 | 96.2 | 86.1 | 105 | 98.1 | 102 | 95.7 | 98.8 | 100 | 96.5 | 94.3 | 95.3 | 65.6 | 0.4 | 0 | 2.4 | > 10 | > 10 |
| Clc1ccc(-c2nc3sccn3c2/C=N/OCc2ccc(Cl)c(Cl)c2)cc1 [CITCO] | 107 | 98.5 | 110 | 94 | 96.5 | 97 | 104 | 104 | 104 | 97.9 | 0 | 0 | > 10 | > 10 | 96.3 | 98.7 | 99.5 | 97.6 | 94 | 92.2 | 88.4 | 93.1 | 93.6 | 92.1 |  |  |  |  |  | 0 | 0 |  | > 10 | > 10 |
